The METLIN SMRT retention time set (Domingo-Almenara et al. 2019)

Assay: gradient 5% acetonitrile 3 min, to 50% in 2 min, to 85% in 15 min, held 3 min, 100 µL/min
Conditions: column: Zorbax Extend-C18 2.1 x 50 mm; eluents: water / acetonitrile, 0.1% formic acid
Method in brief: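 Values are retention times taken from adduct peaks that software picked and an analyst inspected. The pure standards were run as mixtures of ~100 molecules on HPLC linked to a quadrupole time-of-flight mass spectrometer, in positive and negative ionization mode. A Zorbax Extend-C18 column (2.1 × 50 mm, 1.8 μm) was used at 100 μL/min with water and acetonitrile, each including 0.1% formic acid.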

SMILES	RP-LC retention time
Cc1cccc(-c2noc(C3CCCN3C(=O)CNC(=O)c3cccs3)n2)c1 (stereo not drawn)	610 s
O=C(Nc1ccccc1)N1CCC(n2cnc3cc(Cl)ccc3c2=O)CC1	784 s
CCOCCOC(=O)c1cn(-c2ccc(OC)cc2)c(=O)c2ccccc12	963 s
Cc1ccc(-c2nnc(-c3nn(C)c4c3CN(S(=O)(=O)c3ccc5c(c3)OCCO5)CC4)o2)cc1	975 s
CCOc1ccc(-c2noc(Cn3nc(-c4ccccc4F)ccc3=O)n2)cc1OC	964 s
CN1CCC(N2CCN(S(=O)(=O)c3ccc(F)cc3)CC2)C1=O (stereo not drawn)	552 s
Cc1ccc(Cn2nc3c(S(=O)(=O)N4CCOCC4)cccn3c2=O)cc1	774 s
CC(C)(C)C(O)CCNC(=O)C(=O)Nc1cccc(N2CCCCC2=O)c1 (stereo not drawn)	650 s
Cc1cc(C)n(CCNC(=O)C2(c3cccs3)CCCC2)n1	736 s
CC1=NS(=O)(=O)N(C)C=C1C(=O)OCc1nc(-c2ccccc2Cl)no1	954 s
O=C(c1c(F)cccc1F)N1CCN(c2nc(CN3CCOCC3)cs2)CC1	608 s
Cc1ccc(N2CC(C(=O)NCCn3cnc(-c4ccccc4)cc3=O)CC2=O)cc1C (stereo not drawn)	689 s
Cc1ccccc1NC(=O)C1CCc2nc(N3CCCCC3)ncc2C1 (stereo not drawn)	688 s
O=C(Nc1ccccc1)N1CCN(Cc2nc(-c3ccccc3)cs2)CC1	612 s
COC(=O)c1ncn2c1C(=O)N(c1ccc(C)c(C)c1)C(C)(C(=O)NCc1ccccc1)C2 (stereo not drawn)	735 s
Cc1ccc(-n2nccn2)c(C(=O)N2CCN(c3nc4cc(Cl)ccc4o3)CC[C@H]2C)c1	1080 s
CC(=O)Nc1ccc(-c2nc(-c3ccc4c(c3)oc(=O)n4C(C)C)no2)cc1	943 s
COc1ccc(Cl)c2c(=O)c3c([nH]c12)CCN(CC(=O)Nc1ccc(F)c(F)c1)C3	634 s
CCOCCCNCc1ccc(-c2ccc(Cl)cc2Cl)o1	765 s
Cn1cnc2cc(-c3noc(C4CC(=O)N(c5cccc(Cl)c5)C4)n3)ccc21 (stereo not drawn)	697 s
CC(=O)Nc1onc(C)c1-c1ccc(C)c(S(=O)(=O)N2CCN(c3ccccn3)CC2)c1	628 s
O=C(NCc1cc(-c2ccc3c(c2)OCO3)on1)c1c(F)cccc1Cl	785 s

SMILES	RP-LC retention time
COc1ccc(S(=O)(=O)N2CCc3nn(CC4CC4)c(=O)n3CC2)cc1	744 s
O=C(CN1CCN(C(=O)Nc2ccccc2)CC1=O)NC1CCCCCC1	721 s
CCCCC(=O)N1CCN(c2nc3ccccc3cc2-c2noc(C)n2)CC1	913 s
COc1cc2c(cc1O)[C@@H](Cc1ccc(O)c(Oc3ccc(C[C@@H]4c5cc(OC)c(OC)cc5CCN4C)cc3)c1)N(C)CC2	639 s
Cc1ccc(CNC(=O)c2ccc3c(c2)CN(Cc2scnc2C)CCO3)cc1	648 s
COc1cccc(C(=O)N2CCCn3nc(-c4ccc(C)cc4)cc3C2)c1OC	885 s
CC(C)c1csc(-c2csc(S(=O)(=O)N3CCN(c4ccccc4F)CC3)c2)n1	1330 s
CCCN(Cc1cccs1)C(=O)Nc1cc(OC)c(OC)c(OC)c1	875 s
COc1ccc2c(c1)C1CC(C)(O2)N(C)C(=O)C1S(=O)(=O)c1ccc(C(C)C)cc1 (stereo not drawn)	1160 s
CCn1c(=O)c2ccccc2n(Cc2nc(-c3ccccc3)no2)c1=O	991 s
Cc1cccc(NC(=O)Cn2nc3c(Oc4cccc(F)c4)nccn3c2=O)c1	864 s
CCCOC(=O)C1=C(C)NC2=C(C(=O)C(C(=O)OC)C(C)C2)C1c1cccc(OC)c1 (stereo not drawn)	934 s
CCn1cc(-c2nc(C)c(C(=O)Nc3ccc(N4CCOCC4)cc3)s2)c2cccnc21	863 s
CC(C)OC(=O)C(C(=O)OC(C)C)=C1SC=CS1	1110 s
Cc1ccccc1NC(=O)C1CCc2nc(N3CCOCC3)ncc2C1 (stereo not drawn)	723 s
COc1ccc(-c2noc(C3CCCN3C(=O)c3ccccc3)n2)cc1 (stereo not drawn)	907 s
CCn1c(=O)sc2cc(S(=O)(=O)N3CCC(C(=O)N4CCc5ccccc5C4)CC3)ccc21	944 s
CCn1c(CCNC(=O)c2cc(Cl)ccc2F)nc2cccnc21	661 s
O=S(=O)(c1cccc(C(F)(F)F)c1)N1CCc2nc(-c3ccc(F)cc3)ncc2C1	1170 s
COc1ccc(C(=O)N2CCCC2c2nc(-c3ccc(OC)c(OC)c3)no2)cc1OC (stereo not drawn)	817 s
CCN1CCN(CCNC(=O)c2ccc3nc(-c4ccc(Cl)cc4)cn3c2)CC1	578 s
CCS(=O)(=O)N1CCN(Cc2ccc(OC)nc2)CC1	921 s

SMILES	RP-LC retention time
CSC(=O)NC(=O)NC(=O)c1ccc([N+](=O)[O-])cc1	849 s
Cc1cccc(NC(=O)C2CCCN(c3ncnc4onc(-c5ccc(F)cc5)c34)C2)n1 (stereo not drawn)	849 s
CCCCN(C)C(=O)Cn1c(C2CCCN2C(C)=O)nc2ccccc21 (stereo not drawn)	627 s
COc1ccccc1Cc1noc(C2CN(C(=O)c3ccccc3C(F)(F)F)C2)n1	873 s
Oc1cccc(-c2nc3cnc(Br)cn3c2Nc2ccc3c(c2)OCO3)c1	786 s
O=C(Nc1ccccc1)C1CCCN(S(=O)(=O)Cc2ccc(Cl)cc2)C1 (stereo not drawn)	1010 s
COCCNC(=O)CCC1CCN(c2cc(NC3CC3)ncn2)CC1	572 s
COC(=O)c1ccc(CN2CCN(CCN3C(=O)C4C5C=CC(C5)C4C3=O)CC2)cc1 (stereo not drawn)	561 s
O=C(COc1ccc(Cl)cc1)N1CCc2nc[nH]c2C1	606 s
CCCCN1CCN(Cc2nc(-c3ccc(N4CCSCC4)nc3)no2)CC1	653 s
COc1ccc(C(=O)NCCc2c[nH]c3ccc(Cl)cc23)cc1OC	817 s
Cc1cc(N(C)C)n2nc(CN(C)Cc3ccccc3)nc2n1	577 s
O=C1CCCCC(Cc2ccccc2)(C(=O)Nc2ccc(F)cc2)N1 (stereo not drawn)	818 s
CC(C)CN1C(=O)c2cccn2CC1C(=O)NC1CCCCC1 (stereo not drawn)	797 s
CCOC(=O)c1noc2ncnc(N3CCN(c4ccccc4)CC3)c12	968 s
Cn1ncc2c3ccccc3n(CCCC(=O)N3CCc4ccccc4C3)c2c1=O	931 s
COc1ccc(CNC(=O)C2CCCN(S(=O)(=O)c3ccc(OC)c(Cl)c3)C2)cc1 (stereo not drawn)	917 s
Cn1cnc2c(C(=O)Nc3ccc(F)c(Cl)c3)nn(-c3ccccc3)c2c1=O	976 s
O=C(Cn1nc(C(=O)N2CCCCC2)c2ccccc21)Nc1nc2ccc(Cl)cc2s1	969 s
Cc1ccc(C2Cn3cnc(C(=O)N4CCC(C(=O)NCc5cccs5)CC4)c3CO2)cc1 (stereo not drawn)	756 s
Cc1ccnc(N2CCCC(C(=O)NCCc3ccccc3Cl)C2)n1 (stereo not drawn)	779 s
CCOC(=O)c1cnc(N2CCN(c3ccc(Cl)cc3)CC2)nc1C	1380 s

SMILES	RP-LC retention time
COC(=O)c1cccc(-c2nc(C3CC(=O)N(c4ccc(F)c(Cl)c4)C3)no2)c1 (stereo not drawn)	1050 s
CC1CCN(Cc2nc(-c3ccc(N4CCSCC4)nc3)no2)CC1	672 s
CCCCOc1ccc(C(=O)Oc2coc(CSc3nncn3C)cc2=O)cc1	739 s
CC(C)CCNC(=O)C1CCCN(c2nccn3nc(-c4ccccc4Cl)cc23)C1 (stereo not drawn)	969 s
CCOC(=O)c1c(C)oc2ncnc(NCCN3CCN(c4cccc(Cl)c4)CC3)c12	860 s
CNC(=O)C1CCCN(c2nc3ncn(CC(=O)Nc4c(C)cc(C)cc4C)c(=O)c3s2)C1 (stereo not drawn)	661 s
COc1ccccc1NC(=O)N1CCN(c2cc(C)nc(N3CCCCC3)n2)CC1	695 s
Cc1ccc(-c2csc(Nc3ccc(F)cn3)n2)cc1C	1180 s
O=C(CN1CCN(C(=O)Nc2ccccc2)CC1=O)N1CCN(c2ccccc2)CC1	696 s
COC(=O)c1cccc(NC(=O)Nc2c(-c3cccnc3)[nH]c3ccccc23)c1	667 s
Cc1cc2nn(CC(=O)Nc3cccc(Cl)c3)c(=O)n2c(N2CCCC2)n1	813 s
Cc1ccc(S(=O)(=O)N2CCc3nc(-c4ccc(F)cc4)ncc3C2)cc1C	1170 s
CC(C)C(=O)N1CCc2cc(CNC(=O)c3ccnn3C)ccc21	708 s
CCn1nc(C)c(CCNC(=O)C(C)n2c3ccccc3c3cnn(C)c(=O)c32)c1C (stereo not drawn)	656 s
O=C(C1CCCN(c2nccnc2Oc2ccccc2)C1)N1CCN(c2ccccc2Cl)CC1 (stereo not drawn)	1240 s
Cc1cc(N2CCN(C)CC2)nc2ccc(NC(=O)CCC(=O)NCCC(C)C)cc12	556 s
Cn1c(=O)c2c(nc(N3CCOCC3)n2C)n(C)c1=O	663 s
Cc1c(Cl)cccc1NC(=O)CSc1ccc(N2CCCC(C(=O)NC3CC3)C2)nn1 (stereo not drawn)	645 s
COc1ccc(CCC(=O)NCC(=O)Nc2nc3ccccc3[nH]2)cc1	639 s
CCCNC(=O)N1CCN(c2nc(CC(C)C)c3c(c2C#N)CC(C)(C)OC3)CC1	1090 s
CC1CCN(S(=O)(=O)c2ccc(-c3nnc(C(=O)NCc4ccc(F)cc4)o3)cc2)CC1	1040 s
O=C(C1CCCC1)N1CCN(c2cc(-c3ccccc3)[nH]n2)CC1	782 s
